Key:
[1] = target: T1, human pregnane-X receptor (Homo sapiens, UniProt O75469); assay: PXR transactivation assay (CYP3A-Luc reporter in HepG2 cells); type: cell-based; settings: hPXR transactivation assay
T1 construct: expressed in transfected cells; host or cells: HepG2 cells, transiently transfected with PXR-pcDNA3 and CYP3A-Luc
T1 sequence (O75469 1-434): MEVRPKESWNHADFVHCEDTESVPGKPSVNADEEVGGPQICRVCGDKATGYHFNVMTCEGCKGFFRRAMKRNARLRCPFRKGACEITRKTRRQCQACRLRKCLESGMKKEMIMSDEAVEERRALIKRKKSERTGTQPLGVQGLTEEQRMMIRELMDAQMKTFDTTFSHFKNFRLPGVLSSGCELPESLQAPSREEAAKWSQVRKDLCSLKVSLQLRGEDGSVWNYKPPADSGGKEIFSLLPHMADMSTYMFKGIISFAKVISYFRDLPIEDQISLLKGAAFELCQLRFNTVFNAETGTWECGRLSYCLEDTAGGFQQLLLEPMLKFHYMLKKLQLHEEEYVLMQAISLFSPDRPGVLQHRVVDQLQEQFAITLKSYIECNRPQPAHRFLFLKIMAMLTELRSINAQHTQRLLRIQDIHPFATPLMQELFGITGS
Description: Pregnane X receptor (PXR) is a nuclear hormone receptor principally responsible for the induction of cytochrome P450 (CYP) 3A4, which plays a major role in metabolizing many clinically prescribed drugs. It is well known that the induction of CYP3A4 can cause either drug-drug interaction by increasing the metabolic clearance of co-administered CYP3A4 substrates (Bertilsson, G. et al., Proc. Nat. Acad. Sci. USA, 95:12208-12213 (1998); Lehmann, J.M. et al., J. Clin. Invest., 102:1016-1023 (1998)) or can cause loss of drug exposure due to autoinduction. Characterizing the induction potential of discovery or development drug candidates has become an important screen throughout the pharmaceutical industry. […]
Cells in each flask are washed with PBS and 4 mL of Trypsin-EDTA (0.25%) is added and incubated for one minute at room temperature. […] Cells are then counted and diluted in media to 3.0 x 10^5 cells/mL. […] After fifteen minutes, plates are read on a Viewlux (Perkin-Elmer) plate reader.
Rifampicin (10 µM), a well known agonist of PXR, is included in each plate as an internal standard and positive control. The data was then expressed as percent activation (%Act), where the total signal is the signal from the 10 µM rifampicin and the blank signal is that from the DMSO vehicle. %Act = (Compound signal-Blank signal)/(Toal signal-Blank signal) × 100% [formula] […]

[2] = Metabolic stability in liver microsomes (cynomolgus monkey); type: in vitro ADME
Description: Mouse, rat, dog, human, and cynomolgus monkey liver microsomes were obtained from BD Gentest (Woburn, MA). The lot numbers were 13 (mouse), 8 (rat), 8 (dog), 19 and 26 (human), and 3 (cynomolgus monkey). […] The reaction, conducted in triplicate, was initiated by the addition of NADPH followed by incubation at 37°C for 50 minutes. Aliquots of samples (0.25 mL) were taken at 0, 5, 10, 20, 30, 40 and 50 minutes and the reaction was quenched by the addition of 3 volumes of acetonitrile. […] The reaction, conducted in triplicate, was initiated by the addition of NADPH followed by incubation at 37 °C for 50 minutes. Aliquots of samples (0.25 mL) were taken at 0, 5, 10, 20, 30, 40 and 50 minutes and the reaction was quenched by the addition of 3 volumes of acetonitrile. […] The reaction, conducted in duplicate, was initiated by the addition of NADPH followed by incubation at 37°C for 40 minutes. Aliquots of samples (0.25 mL) were taken at 0, 5, 10, 15, 20, 30 and 40 minutes and the reaction was quenched by the addition of 3 volumes of acetonitrile. For all studies, samples were analyzed immediately by an LC/MS method.

SMILES: NC(=O)[C@@H](CCC(F)(F)F)N(Cc1ccc(-c2ncon2)cc1F)S(=O)(=O)c1ccc(Cl)cc1 [(2R)-2-[[(4-chlorophenyl)sulfonyl][[2-fluoro-4-(1,2,4-oxadiazol-3-yl)phenyl]methyl]amino]-5,5,5-trifluoropentanamide]
- EC20A (20% of the Rifampicin response at 10 µM) [1]: 6.9 µM
- EC60A (60% of the Rifampicin response at 10 µM) [1]: greater than 16.7 µM
- rate of in vitro metabolism ([2]; cynomolgus monkey microsomes, NADPH-fortified, 1 µM): 495 pmol/min/mg protein
- predicted in vivo (serum) clearance ([2]; cynomolgus monkey, scaled from liver microsome rate): ~39 mL/min/kg
